# Source: PMC4052307, “Identification of Plakortide E from the Caribbean Sponge Plakortis halichondroides as a Trypanocidal Protease Inhibitor using Bioactivity-Guided Fractionation” (Marine Drugs, 2014)
# Where “and” joins values, the source holds several entries; their conditions need not be identical. Equal entries are not always repeated. Where two headings read alike, the source gives them in different places.
# Assays:
# [1] = tested on: Plasmodia; conditions: cited from earlier work
# [2] = molecular target: T1, rhodesain (Trypanosoma brucei rhodesiense, UniProt Q95PM0); experiment: rhodesain dilution assay (reversibility); assay type: biochemical; conditions: preincubated 1 h with 10 fold IC50, then diluted 100 fold
# T1 sequence (Q95PM0 entry or part of it): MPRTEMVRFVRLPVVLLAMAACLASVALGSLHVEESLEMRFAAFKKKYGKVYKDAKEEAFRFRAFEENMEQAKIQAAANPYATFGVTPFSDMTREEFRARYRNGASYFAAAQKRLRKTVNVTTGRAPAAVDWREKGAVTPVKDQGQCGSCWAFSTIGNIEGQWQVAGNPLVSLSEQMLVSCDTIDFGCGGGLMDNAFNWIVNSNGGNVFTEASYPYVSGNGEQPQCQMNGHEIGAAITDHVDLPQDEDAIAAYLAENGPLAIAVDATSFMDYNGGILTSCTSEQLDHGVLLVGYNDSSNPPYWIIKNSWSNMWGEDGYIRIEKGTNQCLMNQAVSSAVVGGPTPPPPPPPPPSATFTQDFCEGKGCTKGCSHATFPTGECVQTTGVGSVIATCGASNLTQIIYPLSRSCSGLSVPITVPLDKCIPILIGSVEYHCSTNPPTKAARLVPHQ
# Description: In order to study the inhibition mechanism of plakortide E, enzyme assays with various inhibitor and substrate concentrations were performed with cathepsin B to determine whether the inhibition is competitive with respect to the substrate. The IC50 values for cathepsin B were determined at three different substrate concentrations (50, 100, 200 μM). […] Therefore, we determined the time-dependency of inhibition by measuring IC50 values in correlation to incubation time of enzyme with the inhibitor added, prior to substrate addition. […] To address whether the inhibition is reversible or irreversible, further kinetic studies were performed as described by Copeland [19]. Dilution assays were performed and compared with K11777 [20], an irreversible vinylsulfone-based inhibitor of rhodesain. The enzyme rhodesain (100 fold concentration as used in the normal enzyme assays) was preincubated with the 10 fold IC50 concentration of the compound for one hour, which allows the formation of enzyme-inhibitor complexes and leads to total block of enzyme activity. […] In case of irreversible inhibition, dissociation of the complex cannot occur and no enzyme activity will be detected. […] This indicates a reversible inhibition by plakortide E. In summary, plakortide E was determined to be a non-competitive, reversible, inhibitor of cysteine proteases, in case of rhodesain slow-binding was observed.
# [3] = molecular target: cathepsin B (Homo sapiens, UniProt P07858); experiment: cathepsin B enzyme assay; assay type: biochemical
# [4] = molecular target: cathepsin L (Homo sapiens, UniProt P07711); experiment: cathepsin L enzyme assay; assay type: biochemical
# Sequence of cathepsin L (P07711 114-333): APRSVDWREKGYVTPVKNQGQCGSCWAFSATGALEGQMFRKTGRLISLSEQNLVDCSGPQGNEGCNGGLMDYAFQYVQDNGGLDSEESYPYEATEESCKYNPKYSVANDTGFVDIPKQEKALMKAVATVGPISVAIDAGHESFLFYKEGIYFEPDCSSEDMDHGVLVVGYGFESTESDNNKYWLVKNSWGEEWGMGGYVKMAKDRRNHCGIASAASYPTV
# [5] = molecular target: T1, rhodesain; experiment: rhodesain enzyme assay; assay type: biochemical
# [6] = tested on: SARS PLpro; assay type: biochemical, SARS coronavirus; conditions: at 100 μg/mL (285.71 μM)
# [7] = tested on: trypomastigote forms of Trypanosoma brucei; experiment: parasite growth assay against T. brucei; assay type: cell-based; conditions: read-out: trypanocidal activity IC50
# [8] = tested on: Leishmania major promastigotes; experiment: assay on L. major promastigotes; assay type: cell-based
# [9] = tested on: Candida albicans; experiment: assay on C. albicans; assay type: cell-based
# [10] = tested on: J774.1 macrophages; conditions: at 100 μM
# [11] = tested on: sarcoplasmic reticulum (SR) Ca2+ ATPase; design: method as in doi:10.1016/0040-4020(95)00856-X; conditions: cited from earlier work
compound,measurement,setting,value
CC/C=C/C(CC)C[C@@]1(C)C[C@@H](CC)[C@H](CC(=O)OC)OO1 (stereo partly shown) [3-epiplakortin],activity against Plasmodia,[1],active
"CN1CCN(C(=O)N[C@@H](Cc2ccccc2)C(=O)N[C@H](/C=C/S(=O)(=O)c2ccccc2)CCc2ccccc2)CC1 [K11777, reference compound]",reactivation of the enzyme (enzyme activity after dilution),[2],no enzyme activity was detected
CC/C=C/[C@H](CC)C/C(C)=C/[C@@]1(CC)C[C@](/C=C/C(=O)O)(CC)OO1 [plakortide E],"inhibition mechanism, cathepsin B",[3]; IC50 at three substrate concentrations,non-competitive inhibition
same,inhibition of cathepsin B,[3]; at 100 μg/mL (285.71 μM),Inhibition
same,IC50,[3]; substrate concentration 50 μM,82.7 µM and 82 µM
same,IC50,[3]; substrate concentration 100 μM,74.2 µM and 73 µM
same,IC50,[3]; substrate concentration 200 μM,103 µM
same,IC50,[4]; [S] = 6.25 μM,106 µM and 105 µM
same,inhibition of cathepsin L,[4]; at 100 μg/mL (285.71 μM),Inhibition
same,IC50,"[5]; 5 min incubation of enzyme with inhibitor prior to substrate addition, read-out: IC50 rhodesain, time-dependency (converted)",257 µM
same,IC50,"[5]; 30 min incubation of enzyme with inhibitor prior to substrate addition, read-out: IC50 rhodesain, time-dependency (converted)",205 µM
same,IC50,"[5]; 60 min incubation of enzyme with inhibitor prior to substrate addition, read-out: IC50 rhodesain, time-dependency (converted)",77 µM
same,IC50,"[5]; [S] = 30.0 μM, read-out: IC50 rhodesain (converted)",124 µM and 126 µM
same,inhibition of rhodesain,[5]; at 100 μg/mL (285.71 μM),Inhibition
same,"inhibition mechanism, rhodesain",[5]; enzyme kinetic studies,"non-competitive, slowly-binding, reversible inhibitor"
same,reactivation of the enzyme (enzyme activity after dilution),[2],about 50%
same,inhibition of SARS PLpro,[6],Inhibition
same,IC50,[7]; after 48 h,5 µM
same,IC50,[7]; after 72 h,5 µM
same,activity against Leishmania,[8],did not show activity
same,activity against Candida,[9],No activity
same,cytotoxic effects against macrophages,[10],no cytotoxic effects
same,SR Ca2+ ATPase activity,[11],stimulate
same,activity against Plasmodia,[1],inactive
CC/C=C/[C@H](CC)C/C=C/[C@@]1(CC)C[C@H](CC)[C@H](CC(=O)O)OO1 [plakortide M],activity against Plasmodia,[1],active
CC/C=C/[C@H](CC)C[C@@]1(C)C[C@@H](CC)[C@@H](CC(=O)OC)OO1 [plakortin],activity against Plasmodia,[1],active
dihydroplakortin,activity against Plasmodia,[1],active
plakortide Q,activity against Plasmodia,[1],active
